Experimental data taken from article PMC6201879, “N-substituted phenylbenzamides of the niclosamide chemotype attenuate obesity related changes in high fat diet fed mice” (PLoS ONE, 2018).
Read-outs that look alike come from different tables or passages of the source.

Key:
[1] = system: Salmonella typhimurium TA1535
[2] = system: Salmonella typhimurium TA1537
[3] = system: Escherichia coli WP2 uvrA (pKM101)
[4] = system: carbonic anhydrase-III (CAIII); assay: Western blot of carbonic anhydrase III in liver of HFD-fed mice; details: HFD fed-DIO mice; 10mg/kg for 12 days; vs sham
[5] = Body weight changes in HFD-fed mice; assay type: in vivo, mouse
Experimental: We next measured body weight changes in HFD-fed animals prior to treatment with niclosamide or phenylbenzamide derivatives and after 12 days, prior to sacrifice. During this time, all animals (including sham) lost some weight.
20-week old animals were treated IP with 500199 at 10 or 25mg/kg by IP over a time-course of 9 days. At day 0, 3, 6 and 9 animals were weighed and tissue samples were collected for standard histological scoring of hepatic steatosis and automated quantitative histomorphometric scoring.

[6] = system: HEK293 cells stably transduced with the human OCT3 transporter; assay: Cellular oxygen consumption rate (OCR), MitoXpress Xtra; assay type: cell-based; details: HEK293 cells expressing human OCT3; for change in respiration / oxygen consumption rate (OCR): compared to DMSO control, 2 hours; for concentration dependence of OCR change: four concentrations
Experimental: Oxygen consumption rate experiments were performed by ZenBio, Inc (RTP, NC). HEK293 cells stably transduced with the human OCT3 transporter were plated in black-walled microclear plates (Greiner-BioOne) at 60,000 cells per well in growth medium. Cells were incubated overnight to allow attachment before growth medium was removed and replaced with 150μL of assay medium containing compound dilutions. Four concentrations of each compound were prepared and transferred to the empty wells. Control wells contained assay medium only or assay medium containing […] (FCCP) at 1μM. Ten μL of MitoXpress Xtra reagent was added to each test well and 100μL of pre-warmed mineral oil was overlaid in each well to create a seal. The plates were immediately read on a FLUOstar Omega (BMG) using dual read Time Resolved Fluorescence (TR-F) for 2 hours, with measurements taken every 2 minutes using 340nm and 650nm as excitation and emission wavelengths respectively. For lifetime analysis, two measurements per well were taken: 1) delay of 30μs, with a window of 30μs; and 2) delay of 70μs with a window of 30μs. Background TRF values were subtracted from all readings. A ratiometric analysis was performed to determine changes in the Lifetime fluorescence signal: Lifetime (μs)[T] = (D2-D1)/ln(W1/W2), where D is delay; W is fluorescence window value at each time point. Lifetime slopes were calculated using each Lifetime measurement over time. Data are presented as mean ± standard error (SE). The differences between the control (DMSO) and compound treated wells were analyzed using the Student’s t-test. A value of p≤0.05 was considered statistically significant. […]

PH5CH8 liver cells = assay: High-throughput hepatic de novo lipogenesis (DNL) assay, high content imaging of steatotic phenotype; assay type: cell-based, human; details: for IC50: Homo sapiens
[7] = system: phospho-S6 ribosomal protein; assay: Western blot of phospho-S6 ribosomal protein in HEK293T cells; assay type: cell-based, human
[8] = system: fatty acid synthase (FAS); assay: Western blot of fatty acid synthase in liver of HFD-fed mice
p-AMPK Thr-172 = assay: Western blot of p-AMPK Thr-172 in liver of HFD-fed mice
[9] = system: phospho-AMPK Thr-172 (p-AMPK); assay: Western blot of phospho-AMPK Thr-172 in HEK293T cells; assay type: cell-based, human
Experimental: AMPK is a metabolic sensor that maintains cellular energy supply. As validation of these changes in lipid metabolism and cellular respiration we evaluated phospho-AMPK Thr-172 (p-AMPK) levels by Western blot in HEK293 cells treated with the phenylbenzamide derivatives. Compounds were screened at 1 and 10μM using the known uncouplers niclosamide and FCCP as positive controls (Fig 4A). […] We concluded that compounds that had little effect on oxygen consumption rates also had little effect on phosphorylation of AMPK.

[10] = system: Salmonella typhimurium TA100; details: for Mean Revertant Colony Counts TA-100 SP9+: with S9
[11] = set-up: method as in PMID 26245118; details: cited from earlier work
[12] = system: C57-diet induced obesity (DIO) mouse; assay: Glucose tolerance test in DIO mice; assay type: in vivo; details: 5mg/kg for 7 days
Experimental: Animals were then treated with 5mg/kg niclosamide or vehicle for 7 days and GTT was performed again.
Glucose tolerance test in DIO mice. 2g/kg of glucose was injected IP and at 15, 30 and 60 min, blood glucose levels were measured.

[13] = cited from earlier work
[14] = system: Salmonella typhimurium TA98; assay: Ames assay, strain TA98; details: for Mean Revertant Colony Counts TA98 SP9+: with S9
[15] = system: Escherichia coli WP2 uvrA (pKM101); assay: Ames assay, strain WP2 uvrA (pKM101); details: for Mean Revertant Colony Counts WP2 uvrA (pKM101) SP9+: with S9; for Mean Revertant Colony Counts WP2 uvrA (pKM101) S9-: without S9
[16] = system: carbonic anhydrase-III (CAIII); details: HFD fed-DIO mice; cited from earlier work
[17] = system: Salmonella typhimurium (TA98, TA100, TA1535 and TA1537) and Escherichia coli (WP2 uvrA (pKM101)); assay: Ames assay, overall outcome and cytotoxicity across strains
[18] = PH5CH8 liver cells, 10-point dose response between 1μM and 1.9nM, read-out: IC50 (uM), inhibition of steatotic phenotype in DNL assay
[19] = HFD fed-DIO mice, 10mg/kg for 12 days, vs sham
[20] = any concentration tested, vs negative control

Compound: Nc1ccc2cc3ccccc3cc2c1 [Compound 2-AA, 2-Aminoanthracene, reference compound]
- Mean Revertant Colony Counts TA-1535 SP9+ ([1]; Salmonella typhimurium): 24.0
- Mean Revertant Colony Counts TA-1537 SP9+ ([2]; Salmonella typhimurium): 11.0
- Mean Revertant Colony Counts WP2 uvrA (pKM101) SP9+ [3]: 345.3

Compound: COC(=O)c1ccc(NC(=O)c2cc(C(C)(C)C)ccc2O)c(Cl)c1 [Compound 500199, Methyl 4-[(5-tert-butyl-2-hydroxybenzene)amido]-3-chlorobenzoate]
- CAIII protein levels in liver [4]: reduced
- body weight change vs sham ([5]; 10mg/kg I.P daily for 12 days): lost significantly more weight
- body weight vs sham ([5]; 10 or 25mg/kg IP over 9 days): no statistically significant difference
- change in respiration / oxygen consumption rate (OCR) [6]: significant changes
- concentration dependence of OCR change [6]: dose dependent increase in OCR
- IC50 (PH5CH8 liver cells; [18]): 0.06 µM
- IC50 (PH5CH8 liver cells; S1 Table, SAR for N-Substituted Phenylbenzamides, read-out: IC50): 0.066 µM
- Active/Inactive (PH5CH8 liver cells; S1 Table, SAR for N-Substituted Phenylbenzamides): Active
- phospho-S6 ribosomal protein [7]: inversely regulated
- FAS protein levels in liver [8, 19]: reduced
- phosphorylation of AMPK at Thr-172 in liver (p-AMPK Thr-172; [19]): stimulated phosphorylation of AMPK at Thr-172
- phosphorylation of AMPK (p-AMPK Thr-172) by Western blot ([9]; 1 and 10μM, negatives re-screened at 5 and 20 μM, 3 hours): stimulated phosphorylation of AMPK
- concentration at which phosphorylation of AMPK peaks ([9]; Western blot): 5 µM

Compound: O=C(Nc1ccc([N+](=O)[O-])cc1Cl)c1cc(Cl)ccc1O [Niclosamide]
- Mean Revertant Colony Counts TA-100 SP9+ ([10]; 1.5 ug/Well): 19.3
- Mean Revertant Colony Counts TA-100 S9- ([10]; 1.5 ug/Well, without S9): 9.3
- Mean Revertant Colony Counts TA-100 SP9+ ([10]; 4 ug/Well): 36.7
- Mean Revertant Colony Counts TA-100 SP9+ ([10]; 10 ug/Well): 23.3
- Mean Revertant Colony Counts TA-100 SP9+ ([10]; 25 ug/Well): 2.3
- fold increase in the mean number of revertant colonies, TA100 [10, 20]: < 2 fold
- half-life [11]: 6.7 h
- blood glucose levels at 60 minutes, glucose tolerance test ([12]; 2g/kg glucose IP): 250 mg/dL
- plasma glucose levels after the 7-day treatment period ([12]; pre-treatment approximately 400mg/dL): ~275 mg/dL
- peak plasma concentration (Cmax) ([13]; 5mg/kg oral dose in rats): 354 ng/mL
- half-life ([13]; rat, in vivo, po, 5 mg/kg): 6.7 h
- change in respiration / oxygen consumption rate (OCR) [6]: increased OCR
- concentration dependence of OCR change [6]: dose dependent increase in OCR
- IC50 (PH5CH8 liver cells; [18]): 0.02 µM
- reduced steatosis (steatotic phenotype in DNL assay) (PH5CH8 liver cells; PH5CH8, assay validation): 77 ±12%
- Mean Revertant Colony Counts TA-1535 SP9+ ([1]; 1.5 ug/Well, with S9): 3.3
- Mean Revertant Colony Counts TA-1535 SP9+ ([1]; 4 ug/Well, with S9): 3.7
- fold increase in the mean number of revertant colonies, TA1535 [1, 20]: < 3 fold
- expression of fatty acid synthase (FAS) in liver ([8]; HFD-fed mice, highest concentration (25mg/kg) IP daily for 12 days): significant reduction
- Mean Revertant Colony Counts TA98 SP9+ ([14]; 1.5 ug/Well): 52.0
- Mean Revertant Colony Counts TA98 S9- ([14]; 1.5 ug/Well, without S9): 1.5
- Mean Revertant Colony Counts TA98 SP9+ ([14]; 4 ug/Well): 108.3
- Mean Revertant Colony Counts TA98 SP9+ ([14]; 10 ug/Well): 194.7
- fold increase in the mean number of revertant colonies, TA98 ([14]; 1.5, 4 and 10 μg/well in the presence of S9 mix): ≥ 2 fold
- Mean Revertant Colony Counts WP2 uvrA (pKM101) SP9+ ([15]; 1.5 ug/Well): 36.7
- Mean Revertant Colony Counts WP2 uvrA (pKM101) S9- ([15]; 1.5 ug/Well): 17.3
- Mean Revertant Colony Counts WP2 uvrA (pKM101) SP9+ ([15]; 4 ug/Well): 44.0
- Mean Revertant Colony Counts WP2 uvrA (pKM101) S9- ([15]; 4 ug/Well): 20.7
- Mean Revertant Colony Counts WP2 uvrA (pKM101) SP9+ ([15]; 10 ug/Well): 34.0
- Mean Revertant Colony Counts WP2 uvrA (pKM101) S9- ([15]; 10 ug/Well): 19.3
- Mean Revertant Colony Counts WP2 uvrA (pKM101) SP9+ ([15]; 25 ug/Well): 31.7
- Mean Revertant Colony Counts WP2 uvrA (pKM101) S9- ([15]; 25 ug/Well): 14.7
- Mean Revertant Colony Counts WP2 uvrA (pKM101) SP9+ ([15]; 64 ug/Well): 27.0
- Mean Revertant Colony Counts WP2 uvrA (pKM101) S9- ([15]; 64 ug/Well): 22.7
- Mean Revertant Colony Counts WP2 uvrA (pKM101) SP9+ ([15]; 160 ug/Well): 24.7
- Mean Revertant Colony Counts WP2 uvrA (pKM101) S9- ([15]; 160 ug/Well): 17.7
- Mean Revertant Colony Counts WP2 uvrA (pKM101) SP9+ ([15]; 400 ug/Well): 14.7
- Mean Revertant Colony Counts WP2 uvrA (pKM101) S9- ([15]; 400 ug/Well): 17.7
- Mean Revertant Colony Counts WP2 uvrA (pKM101) SP9+ ([15]; 1000 ug/Well): 14.7
- Mean Revertant Colony Counts WP2 uvrA (pKM101) S9- ([15]; 1000 ug/Well): 14.0
- fold increase in the mean number of revertant colonies, WP2 uvrA (pKM101) [15, 20]: < 2 fold
- concentration with significant cytotoxicity, WP2 uvrA (pKM101) ([15]; both in the presence and absence of S9 mix): ≥ 400 μg /well
- p-AMPK Thr-172 in liver (p-AMPK Thr-172; HFD-fed mice, 5 or 25mg/kg IP daily for 12 days): significantly upregulated
- carbonic anhydrase-III (CAIII) hepatic protein [16]: down regulated
- Mean Revertant Colony Counts TA-1537 SP9+ ([2]; 1.5 ug/Well, with S9): 1.7
- Mean Revertant Colony Counts TA-1537 SP9+ ([2]; 4 ug/Well, with S9): 2.0
- Mean Revertant Colony Counts TA-1537 SP9+ ([2]; 10 ug/Well, with S9): 0.7
- fold increase in the mean number of revertant colonies, TA1537 [2, 20]: < 3 fold
- Ames assay outcome (mutagenicity) [17]: positive
- concentration with significant cytotoxicity, strains TA98, TA100, TA1535 and TA1537 ([17]; in the absence of the S9 mix): ≥ 1.5 μg /well
- concentration with significant cytotoxicity, strains TA98, TA100, TA1535 and TA1537 ([17]; in the presence of S9 mix): ≥ 10 μg /well
